The results in this text go back to ChEMBL document CHEMBL4376804, “Review of Transient Receptor Potential Canonical (TRPC5) Channel Modulators and Diseases” (J Med Chem, 2019).

In general, pIC50 refers to the negative decadic logarithm of the IC50, by convention in mol/L.

Holding throughout (assay type): cell-based
Test [1] addresses T1, Short transient receptor potential channel 5 (Mus musculus, UniProt Q9QX29).
T1 sequence (Q9QX29 whole entry): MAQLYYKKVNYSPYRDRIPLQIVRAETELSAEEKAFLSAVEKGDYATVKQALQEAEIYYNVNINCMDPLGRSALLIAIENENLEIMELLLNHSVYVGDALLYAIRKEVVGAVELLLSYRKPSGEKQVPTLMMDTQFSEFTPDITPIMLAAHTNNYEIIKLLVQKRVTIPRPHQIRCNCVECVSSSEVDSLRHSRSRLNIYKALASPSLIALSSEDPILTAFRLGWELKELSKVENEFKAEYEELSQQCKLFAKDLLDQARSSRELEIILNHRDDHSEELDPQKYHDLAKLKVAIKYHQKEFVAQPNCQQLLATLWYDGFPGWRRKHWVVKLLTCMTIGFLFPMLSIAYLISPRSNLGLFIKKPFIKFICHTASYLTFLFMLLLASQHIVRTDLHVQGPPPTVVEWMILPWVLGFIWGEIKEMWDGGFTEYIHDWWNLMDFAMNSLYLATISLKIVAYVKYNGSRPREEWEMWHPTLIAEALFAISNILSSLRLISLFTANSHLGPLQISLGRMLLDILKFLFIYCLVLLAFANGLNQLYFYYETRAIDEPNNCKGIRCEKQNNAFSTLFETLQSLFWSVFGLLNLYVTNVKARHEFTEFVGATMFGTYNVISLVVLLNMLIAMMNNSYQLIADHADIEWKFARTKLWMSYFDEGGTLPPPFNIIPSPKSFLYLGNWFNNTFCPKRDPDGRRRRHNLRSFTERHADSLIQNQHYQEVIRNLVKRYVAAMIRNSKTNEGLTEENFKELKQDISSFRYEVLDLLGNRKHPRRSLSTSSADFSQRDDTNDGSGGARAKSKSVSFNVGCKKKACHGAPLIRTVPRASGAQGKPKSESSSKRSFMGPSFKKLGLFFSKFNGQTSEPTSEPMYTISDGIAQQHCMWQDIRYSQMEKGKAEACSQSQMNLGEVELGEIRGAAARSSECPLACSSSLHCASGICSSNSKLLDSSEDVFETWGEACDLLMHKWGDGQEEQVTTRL
Put plainly: Inhibition of mouse TRPC5 expressed in HEK293 cells co-expressing mu-opioid receptor assessed as reduction in DAMGO-induced membrane potential by FMP-2 dye based assay.

The target in test [2] is T2, Short transient receptor potential channel 6 (Mus musculus, UniProt Q61143).
T2 sequence (Q61143 whole entry): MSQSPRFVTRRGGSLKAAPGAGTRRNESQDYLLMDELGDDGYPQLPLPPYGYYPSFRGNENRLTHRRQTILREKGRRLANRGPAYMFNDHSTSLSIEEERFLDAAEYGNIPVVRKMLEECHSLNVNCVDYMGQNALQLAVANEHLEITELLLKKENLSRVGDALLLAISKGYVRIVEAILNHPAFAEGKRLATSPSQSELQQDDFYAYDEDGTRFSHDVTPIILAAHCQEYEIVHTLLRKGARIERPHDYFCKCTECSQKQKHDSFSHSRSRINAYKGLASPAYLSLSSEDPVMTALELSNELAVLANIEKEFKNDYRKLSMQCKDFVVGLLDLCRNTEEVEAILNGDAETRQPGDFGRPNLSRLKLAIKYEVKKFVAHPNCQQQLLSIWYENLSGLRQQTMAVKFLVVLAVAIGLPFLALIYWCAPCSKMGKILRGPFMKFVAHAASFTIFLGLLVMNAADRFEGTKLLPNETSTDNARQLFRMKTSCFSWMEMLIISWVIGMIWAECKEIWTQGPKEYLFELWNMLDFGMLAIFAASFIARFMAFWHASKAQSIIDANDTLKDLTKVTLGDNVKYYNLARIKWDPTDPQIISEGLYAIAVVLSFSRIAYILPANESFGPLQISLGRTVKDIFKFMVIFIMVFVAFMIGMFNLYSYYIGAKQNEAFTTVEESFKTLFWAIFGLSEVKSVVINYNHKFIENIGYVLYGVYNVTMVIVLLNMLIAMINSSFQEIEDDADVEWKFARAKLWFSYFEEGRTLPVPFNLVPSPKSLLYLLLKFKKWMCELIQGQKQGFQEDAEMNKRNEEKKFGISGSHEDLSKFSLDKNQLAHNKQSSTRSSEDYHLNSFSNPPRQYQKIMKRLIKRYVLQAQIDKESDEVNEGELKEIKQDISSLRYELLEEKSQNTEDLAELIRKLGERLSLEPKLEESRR
Put plainly: Inhibition of mouse TRPC6 expressed in HEK293 cells co-expressing M5 receptor assessed as reduction in carbachol-induced membrane potential by FMP-2 dye based assay.

Test [3] has as its target T3, Short transient receptor potential channel 3 (Homo sapiens, UniProt Q13507).
T3 sequence (Q13507 whole entry): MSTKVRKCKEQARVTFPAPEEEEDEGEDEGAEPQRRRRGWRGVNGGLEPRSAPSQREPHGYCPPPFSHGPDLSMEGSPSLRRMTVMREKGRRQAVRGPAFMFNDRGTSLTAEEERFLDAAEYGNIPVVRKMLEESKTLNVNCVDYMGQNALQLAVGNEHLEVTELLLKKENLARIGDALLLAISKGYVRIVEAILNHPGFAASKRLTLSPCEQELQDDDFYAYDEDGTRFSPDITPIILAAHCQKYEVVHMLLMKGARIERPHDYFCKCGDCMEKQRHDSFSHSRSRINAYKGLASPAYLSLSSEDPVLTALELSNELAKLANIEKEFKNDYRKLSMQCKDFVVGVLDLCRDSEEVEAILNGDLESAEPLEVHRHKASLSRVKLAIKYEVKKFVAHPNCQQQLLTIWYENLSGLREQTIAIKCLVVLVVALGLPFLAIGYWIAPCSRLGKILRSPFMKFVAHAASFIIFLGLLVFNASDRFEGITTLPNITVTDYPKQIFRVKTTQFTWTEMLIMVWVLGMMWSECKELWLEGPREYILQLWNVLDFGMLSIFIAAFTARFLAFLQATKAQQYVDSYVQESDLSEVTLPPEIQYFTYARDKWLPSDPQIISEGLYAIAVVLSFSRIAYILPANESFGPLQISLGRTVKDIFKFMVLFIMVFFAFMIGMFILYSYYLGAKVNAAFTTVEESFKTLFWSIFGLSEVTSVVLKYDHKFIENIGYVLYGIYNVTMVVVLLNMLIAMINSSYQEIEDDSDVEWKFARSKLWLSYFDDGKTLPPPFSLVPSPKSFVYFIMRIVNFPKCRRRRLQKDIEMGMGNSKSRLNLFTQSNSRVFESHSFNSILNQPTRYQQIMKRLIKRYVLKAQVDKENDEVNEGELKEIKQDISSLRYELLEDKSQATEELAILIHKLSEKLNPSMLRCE
Put plainly: Inhibition of human TRPC3 expressed in HEK293 cells assessed as reduction in carbachol-induced membrane potential by FMP-2 dye based assay.

pIC50: −log10 of the molar value.

Turning to `c1ccc2[nH]c(N3CCCC3)nc2c1`, the negative-log IC50 (pIC50) in test [1] is 5.10; in test [2], below 4.00; in test [3], below 4.00.
`CC1CCCCN1c1nc2ccccc2[nH]1` (stereo not drawn): the figures for the negative logarithm of the IC50 (pIC50) in test [1], in test [2] and in test [3] were 5.46, below 4.00 and below 4.00, respectively.
As for `CC1CCN(c2nc3cc(Cl)ccc3[nH]2)CC1`, the negative logarithm of the IC50 (pIC50) is 5.51 in test [1], 4.24 in test [2] and 4.52 in test [3].
Take `c1ccc2[nH]c(N3CCCCC3)nc2c1`: the negative logarithm of the IC50 (pIC50) is 4.95 in test [1], below 4.00 in test [2] and below 4.00 in test [3].
Turning to `CC1CCN(c2nc3ccccc3[nH]2)CC1`, the negative-log IC50 (pIC50) is 5.18 in test [1], 4.20 in test [2] and 4.71 in test [3].
`c1ccc2[nH]c(NC34CC5CC(CC(C5)C3)C4)nc2c1`: the pIC50 was 4.91 in test [1], below 4.00 in test [2] and below 4.00 in test [3].
